Experimental data taken from PubChem BioAssay AID1324 (NMMLSC, 2008).
Calls of active or inactive are those of the source. No rule for the calls is given here.

Each molecule was assayed against glutathione S-transferase (GST-GSH binding) (assay: GST–glutathione interaction disruption – biochemical, multiplex beads, flow cytometry, HPSMTB buffer, profiling panel (AID 1324;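 also: glutathione beads loaded with GST-green fluorescent protein and no fluorescent Bim peptide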)). Details: multiplex bead flow cytometry, MCF.
With `O=C(Nc1cccc(Cl)c1)Nc1ccnc(-c2cccnc2)n1` the EC50 was “inactive”.
`CCOCCCNc1nc(=S)[nH]c2cc(OC)c(OC)cc12` was tested, and the EC50 was “inactive”.
In the case of `c1ccc(Nc2cccc(Nc3ccccc3)n2)cc1`, the EC50 is reported as “inactive”.
For `O=C1c2ccccc2-c2onc3ccc(NCCCn4ccnc4)c1c23`, the EC50 was “inactive”.
With `Cc1ccc(Nc2nc(-c3c(C)nc4ncccn34)cs2)cc1` the EC50 was “inactive”.

Same assay, conditions: multiplex bead flow cytometry, MCF, concentration not given here
For `COCCNC(=S)Nc1cc(OC)c(OC)cc1C#N`, the percent span inhibition was “inactive”.
In the case of `O=C(N/N=C/c1cccnc1)c1cccc(S(=O)(=O)N2CCCC2)c1`, the percent span inhibition is reported as “inactive”.
With `Cc1ccc(/C=C2/NC(=O)N(Cc3ccccc3)C2=O)o1` the percent span inhibition was “inactive”.
`CCOC(=O)C1(CC/C(C)=N\NC(N)=O)CC(C)(C)OC1=O` (stereo not given) was tested, and the percent span inhibition was “inactive”.
`CCOc1cc(/C=C2/N=C(C)C(C(=O)OC)=C2O)ccc1O` was tested, and the percent span inhibition was “inactive”.
With `N/C(Cc1ccc(Cl)c(Cl)c1)=N\OC(=O)c1cccs1` the percent span inhibition was “inactive”.
With `CN1/C(=C\C(=O)Nc2ccc(Cl)cc2)C(C)(C)c2ccccc21` the percent span inhibition was “inactive”.
`Cc1cc(N2CCN(C)CC2)nc2ccc(NC(=S)N3CCC4(CC3)OCCO4)cc12` was tested, and the percent span inhibition was “inactive”.
In the case of `COCCN=c1scc(-c2ccco2)n1/N=C/c1ccc(O)c(O)c1O`, the percent span inhibition is reported as “inactive”.
In the case of `Fc1ccccc1-n1cc(-c2ccccc2)[nH]c1=S`, the percent span inhibition is reported as “inactive”.
With `N=C1C(c2nc3ccccc3s2)=C(O)CN1Cc1ccccc1` the percent span inhibition was “inactive”.
In the case of `O=C(CSc1ccc2nnc(-c3ccccn3)n2n1)Nc1nccs1`, the percent span inhibition is reported as “inactive”.
In the case of `Cc1cc(-c2nnc3n2N=C(c2ccc(-c4ccccc4)cc2)CS3)n[nH]1`, the percent span inhibition is reported as “inactive”.
With `Cc1ccc(-c2cc(-c3ccc(F)cc3)nc(N)c2C#N)o1` the percent span inhibition was “inactive”.
In the case of `O=C(Nc1nnc(C2CC2)s1)C1Cc2ccccc2CN1S(=O)(=O)c1ccccc1F` (stereo not given), the percent span inhibition is reported as “inactive”.
`O=C(C1CCC(Cn2c(=S)[nH]c3ccccc3c2=O)CC1)N1CCN(c2ccccn2)CC1` (stereo not given) was tested, and the percent span inhibition was “inactive”.
In the case of `COc1ccc(C2C(C#N)=C(C)NC3=C2S(=O)(=O)c2ccccc23)cc1` (stereo not given), the percent span inhibition is reported as “inactive”.
`COc1ccc(C2=Nn3c(nnc3-c3ccccn3)SC2)cc1OC` was tested, and the percent span inhibition was “inactive”.
With `O=C1C(Cl)=C(Nc2ccccc2O)C(=O)N1c1ccccc1` the percent span inhibition was “inactive”.
With `Cc1onc(-c2ccccc2)c1C(=O)Nc1nnc(COc2ccc(Cl)cc2)s1` the percent span inhibition was “inactive”.
For `C#CCOCCOCCOCCNc1nc(N2CCN(C(=O)[C@H]([C@@H](C)CC)n3cc([C@@H](N)CC(C)C)nn3)CC2)nc(N2CCN(C(=O)[C@H](Cc3cc4ccccc4[nH]3)n3cc([C@@H](N)Cc4ccc(O)cc4)nn3)CC2)n1`, the percent span inhibition was “inactive”.
For `Cc1ccc(-c2cc(C(=O)OCC(=O)N(C)C3CCS(=O)(=O)C3)c3ccccc3n2)o1` (stereo not given), the percent span inhibition was “inactive”.
In the case of `Cc1cccc(OCC(=O)NCC(=O)N/N=C/c2cc(Br)ccc2OCc2ccccc2)c1`, the percent span inhibition is reported as “inactive”.
With `Cc1ccc(C)c(/C=C/C(=O)c2ccccc(=O)c2O)c1` the percent span inhibition was “inactive”.
With `Clc1nssc1=Nc1ccccc1` the percent span inhibition was “inactive”.
In the case of `c1ccc(-c2nnc(OCCN3CCOCC3)c3ccccc23)cc1`, the percent span inhibition is reported as “inactive”.
`O=c1[nH]c2ccc(N=Cc3c(O)ccc4cc(Br)ccc34)cc2[nH]1` was tested, and the percent span inhibition was “inactive”.
`CNC(=O)CC1C(=O)N(Cc2ccccc2)C(=S)N1NC(=O)c1cccc(F)c1` (stereo not given) was tested, and the percent span inhibition was “inactive”.
`Cc1ccc(NC(=S)N2CCn3cccc3C2c2cccnc2)cc1` (stereo not given) was tested, and the percent span inhibition was “inactive”.
With `CCOc1ccc(NCc2ccccc2OCc2cccc(F)c2)cc1` the percent span inhibition was “inactive”.
`COc1ccc(NC(=O)COc2ncnc3ccccc23)cc1S(=O)(=O)N1CCOCC1` was tested, and the percent span inhibition was “inactive”.
For `O=C(OCc1cnc(Cl)s1)c1cccc(Cl)c1Cl`, the percent span inhibition was “inactive”.
`CCOC(=O)c1nn(-c2ccccc2)c(C#N)c1N` was tested, and the percent span inhibition was “inactive”.
`O=C1c2ccccc2C(=O)N1c1cccc2cccnc12` was tested, and the percent span inhibition was “inactive”.
`COc1cc(/C=C2\S/C(=N/S(=O)(=O)c3ccc(C)cc3)NC2=O)c([N+](=O)[O-])cc1OC` was tested, and the percent span inhibition was “inactive”.
For `O=C(NCCCO)Nc1ccc2nc(-c3ccco3)c(-c3ccco3)nc2c1`, the percent span inhibition was “inactive”.
With `CCOC(=O)c1snc(-c2ccc(F)cc2)c1N` the percent span inhibition was “inactive”.
In the case of `Cc1cccc(-c2nnc3n2N=C(c2ccccc2)CS3)c1`, the percent span inhibition is reported as “inactive”.
For `CCSc1nnc(NC(=O)c2c(-c3ccccc3Cl)noc2C)s1`, the percent span inhibition was “inactive”.
With `CCc1ccc(/C=C/C(=O)c2cc(Br)ccc(=O)c2O)cc1` the percent span inhibition was “inactive”.
With `Cc1ccc2cc(C)c(Sc3nnnn3-c3ccccc3)nc2c1` the percent span inhibition was “inactive”.
In the case of `Cc1ccc(C)c(NC(=O)C(=O)NCc2ccccn2)c1`, the percent span inhibition is reported as “inactive”.
In the case of `COc1ccc(CC(=O)Nc2ccc3nc(C)sc3c2)cc1OC`, the percent span inhibition is reported as “inactive”.
`COC(=O)Cc1ccc(NC(=S)N2CCN(c3cccc(O)c3)CC2)cc1` was tested, and the percent span inhibition was “inactive”.
For `CNCc1ccccc1Sc1ccc(O)c(O)c1`, the percent span inhibition was “inactive”.
For `Cc1nnc(Sc2cc(NCCO)c([N+](=O)[O-])c3nonc23)s1`, the percent span inhibition was “inactive”.
For `Cc1cc(C)c(S(=O)(=O)/N=C2/C=C(SCC(=O)O)C(=O)c3ccccc32)cc1C`, the percent span inhibition was “inactive”.
In the case of `COc1ccc(/C=C/C(=O)c2cc(Br)ccc(=O)c2O)cc1`, the percent span inhibition is reported as “inactive”.
For `COc1ccc(Cl)cc1-n1c(C)cc(C=O)c1C`, the percent span inhibition was “inactive”.
In the case of `CCCCc1ccc(NC(=S)NCc2ccc(OC)cc2)cc1`, the percent span inhibition is reported as “inactive”.
In the case of `CC(=O)Nc1ccc(-n2cc(-c3ccccc3)[nH]c2=S)cc1`, the percent span inhibition is reported as “inactive”.
With `Cc1cc(C)nc(/N=C(\N)N2CCc3ccccc32)n1` the percent span inhibition was “inactive”.
With `CC(=O)Nc1ccc2nc(CN3CCN(CC(C)C)C(CCO)C3)ccc2c1` (stereo not given) the percent span inhibition was “inactive”.
For `O=[N+]([O-])c1ccc(-c2cn(-c3ccc(Cl)cc3)c(=S)[nH]2)cc1`, the percent span inhibition was “inactive”.
For `O=C(CSc1nnc(-c2ccccc2)c(-c2ccccc2)n1)N1CCc2ccccc21`, the percent span inhibition was “inactive”.
For `NC(=O)c1c(N)sc2c1CCCCC2`, the percent span inhibition was “inactive”.
With `Cc1ccc(-c2nc3c(c(=O)[nH]c(=O)n3Cc3ccccc3)n2Cc2ccccc2)o1` the percent span inhibition was “inactive”.
`CCOC(=O)c1[nH]cnc1C(=O)NC(C)C` was tested, and the percent span inhibition was “inactive”.
`CCCCC(C(=O)OCC)C(N)Cc1ccc(F)cc1` (stereo not given) was tested, and the percent span inhibition was “inactive”.
For `Cc1cc(C)cc(-n2c(C)nc3cc(C(=O)O)ccc32)c1`, the percent span inhibition was “inactive”.
In the case of `Cc1cc(N2CCN(C)CC2)nc2ccc(NC(=S)N3CCCCC3)cc12`, the percent span inhibition is reported as “inactive”.
`C#CCn1cc(C=C2C(=O)c3ccccc3C2=O)c2ccccc21` was tested, and the percent span inhibition was “inactive”.
For `Cn1c(CCNC(=O)C2CCCCC2)nc2cc(NC(=O)c3cccs3)ccc21`, the percent span inhibition was “inactive”.
For `S=C(Nc1ccccc1)N1CCn2cccc2C1c1cccnc1` (stereo not given), the percent span inhibition was “inactive”.
With `Cc1ccc(-c2nc3c(c(=O)[nH]c(=O)n3Cc3ccccc3)n2C)o1` the percent span inhibition was “inactive”.
With `CN(C)c1ccc(C=C2C(=O)NC(=O)NC2=O)cc1[N+](=O)[O-]` the percent span inhibition was “inactive”.
With `BrC(=C\c1ccccc1)/C=N/N1CCN(c2ccccc2)CC1` the percent span inhibition was “inactive”.
For `COc1cccc(/C=N/Nc2nn3cnnc3c3ccccc23)c1O`, the percent span inhibition was “inactive”.
With `Nc1ccc(N2CCN(CCCCN3C(=O)C4CCCN4C3=O)CC2)cc1` (stereo not given) the percent span inhibition was “inactive”.
`COc1ccc(N=C2NC(=O)/C(=C\C=C\c3ccco3)S2)cc1` was tested, and the percent span inhibition was “inactive”.
With `CN1CCN(c2ccccc2N)CC1` the percent span inhibition was “inactive”.
With `C=CS(=O)(=O)c1sc(Cl)c(N2CCOCC2)c1[N+](=O)[O-]` the percent span inhibition was “inactive”.
`CCN(CC)c1ccc(NC(=O)c2ccccc2)cc1S(=O)(=O)Nc1ccccc1OC` was tested, and the percent span inhibition was “inactive”.
`Cc1nnc(Sc2cc(NCCCO)c([N+](=O)[O-])c3nonc23)s1` was tested, and the percent span inhibition was “inactive”.
With `C=CCn1c(SCC(=O)Nc2ccc3c(c2)OCO3)nnc1-c1cc(Br)ccc1O` the percent span inhibition was “inactive”.
`Cc1cc(N2CCN(C)CC2)nc2ccc(NC(=S)N3CCN(c4ccc(F)cc4)CC3)cc12` was tested, and the percent span inhibition was “inactive”.
`CC(C)(C)C1CCC(=NNC(=O)c2cc3c(s2)CCCC3)CC1` (stereo not given) was tested, and the percent span inhibition was “inactive”.
In the case of `CCCC1(C(=O)OCC)NC(c2cc(OC)c(OC)c(OC)c2)C2C(=O)N(CC)C(=O)C21` (stereo not given), the percent span inhibition is reported as “inactive”.
For `CN(C)/C=C/C(=O)c1ccc(C(F)(F)F)cc1F`, the percent span inhibition was “inactive”.
With `CCOC(=O)c1sc(NC(=O)c2ccncc2)c(C#N)c1C` the percent span inhibition was “inactive”.
For `CCN(CC)c1ccc(Nc2nc(N3CCOCC3)c3ccccc3n2)cc1`, the percent span inhibition was “inactive”.
`COc1ccc(CCNC(=O)c2ccc3nc(-c4ccco4)c(-c4ccco4)nc3c2)cc1OC` was tested, and the percent span inhibition was “inactive”.
With `COc1ccccc1NC(=O)CSc1ncn(-c2ccccc2)n1` the percent span inhibition was “inactive”.
In the case of `O=C(COc1ccccc1Br)NCc1ccccn1`, the percent span inhibition is reported as “inactive”.
For `COC(=O)c1cccc(-n2c(C)cc(C=O)c2C)c1`, the percent span inhibition was “inactive”.
In the case of `Cc1cccc(-n2c(O)c(/C=N/N3CCOCC3)c(=O)[nH]c2=S)c1`, the percent span inhibition is reported as “inactive”.
`CCc1cccc(CC)c1NC(=S)N1CCn2cccc2C1c1cccnc1` (stereo not given) was tested, and the percent span inhibition was “inactive”.
In the case of `O=C(C1=C(Nc2ccccc2)c2ccccc2S(=O)(=O)N1)c1ccccc1`, the percent span inhibition is reported as “inactive”.
With `Cc1ccc(C(=O)/C=C/c2ccc(-c3ccc(C)cc3)o2)cc1` the percent span inhibition was “inactive”.
With `Cc1ccc(-c2cc(-c3ccccc3)c(C#N)c(N)n2)o1` the percent span inhibition was “inactive”.
In the case of `Cc1c(N=C2C=CC(=O)c3ccccc32)c(=O)n(-c2ccccc2)n1C`, the percent span inhibition is reported as “inactive”.
In the case of `Cc1ccccc1/C=N/Nc1ccnc2cc(Cl)ccc12`, the percent span inhibition is reported as “inactive”.
`CCC(=O)OCCNc1cc(Sc2nc3ccccc3s2)c2nonc2c1[N+](=O)[O-]` was tested, and the percent span inhibition was “inactive”.
For `Cc1ccc(C(=O)N/N=C2/NC(=O)CC(C(=O)Nc3ccccc3)S2)cc1` (stereo not given), the percent span inhibition was “inactive”.
With `Nc1ccccc1N=c1ssnc1Cl` the percent span inhibition was “inactive”.
